Columns and labels:
[1] = system: TrkB-expressing neuroblastoma cells (SH-SY5Y cells stably transfected with TrkB); assay: Sulphorhodamine B (SRB) assay, survival and growth of TrkB-expressing neuroblastoma cells; assay type: cell-based; details: single agent; 1-100 nM; 100 ng per mL BDNF; 24, 48, 72 hours
SY5Y-TrkB cells = assay: SY5Y-TrkB xenograft study: tumor growth and event-free survival; assay type: in vivo, athymic nu/nu mice; details: oral
Method: N-[5-(3,5-difluorobenzyl)-1H-indazol-3-yl]-4-(4-methyl-piperazin-1-yl)-2-(tetrahydro-2H-pyran-4-ylamino) benzamide_was dissolved in DMSO to obtain stocks for in vitro studies. For in vivo xenograft experiments, N-[5-(3,5-difluorobenzyl)-1H-indazol-3-yl]-4-(4-methyl-piperazin-1-yl)-2-(tetrahydro-2H-pyran-4-ylamino) benzamide was reconstituted in 0.5% methyl cellulose (Sigma-Aldrich, viscosity 400 cP, 2% in H2O) containing 1% Tween 80 at a final dosing volume of 10 mL per kg. Prior to dosing, the formulation was stirred at room temperature for 30 min, and then sonicated in a water bath sonicator for 20 min. The formulation was made fresh every week. For the in vivo study, the animals were dosed with the formulation of N-[5-(3,5-difluorobenzyl)-1H-indazol-3-yl]-4-(4-methyl-piperazin-1-yl)-2-(tetrahydro-2H-pyran-4-ylamino) benzamide twice a day (BID) for 7 days per week at a dose of 60 mg per kg.
Xenograft studies were performed using SH-SY5Y cells stably transfected with TrkB. Cells were grown in RPMI-1640 medium containing 10% fetal bovine serum and maintained in 150 cm^3 Costar culture flasks in a humidified atmosphere of 95% air and 5% CO2. Cells were harvested using 0.2% tetra sodium EDTA in phosphate buffered saline (PBS).
Six-week-old athymic nu/nu mice were obtained from Jackson Laboratories. Mice were maintained at five per cage under humidity- and temperature-controlled conditions in a light/dark cycle that was set at 12-hour intervals.
For in vivo xenograft studies, six-week-old athymic nu/nu mice were injected subcutaneously in the flank with 1×10^7 SY5Y-TrkB cells in 0.1 ml of Matrigel (BD Bioscience, Palo Alto, Calif.). Tumors were measured 2 times per week in 3 dimensions, and the volume calculated as follows: [(0.523×L×W×W)/1000]. Body weights of the mice were obtained every week and the dose of the tested compounds were adjusted accordingly. […]

CN1CCN(c2ccc(C(=O)Nc3n[nH]c4ccc(Cc5cc(F)cc(F)c5)cc34)c(NC3CCOCC3)c2)CC1 [N-[5-(3,5-difluorobenzyl)-1H-indazol-3-yl]-4-(4-methyl-piperazin-1-yl)-2-(tetrahydro-2H-pyran-4-ylamino) benzamide]
inhibition of growth of TrkB-expressing NB cells in vitro [1]: significantly inhibited growth | Estimated slope from linear mixed effects model (increase of log tumor volume) (SY5Y-TrkB cells; Control vs Group 2 analysis (FIG. 3), Group 2: alone, 60 mg per kg, twice per day, 7 times per week): 0.0973 per day in the log of tumor volume | Estimated slope of trace in FIG. 1, linear mixed effects model (SY5Y-TrkB cells; Group 2: alone, 60 mg per kg, twice per day, 7 times per week): 0.0696 per day in the log of tumor volume | tumor growth inhibition compared to control animals (SY5Y-TrkB cells; single agent therapy, 60 mg per kg BID): significant tumor growth inhibition

Source: patent US10357490B2, “Combinations for the treatment of neuroblastoma” (IGNYTA, INC., priority 2014, dated 2019)
